Measured values published in patent publication US12686673B2 (Blueprint Medicines Corporation, priority 2020, dated 2026).

Experiments:
[1] = target: HER2 (A775_G776insYVMA) expressing Ba/F3 stable cell line (Homo sapiens, UniProt P04626, DUP772-775, cells depend on it); test: Cellular proliferation (Alamar Blue) assay, HER2 A775_G776insYVMA Ba/F3; assay type: cell-based; conditions: 72 hr, read-out: YVMA IC50
Method: • 1. EGFR(D770_N771insSVD) expressing Ba/F3 stable cell line • 2. EGFR (A767_dupASV) expressing Ba/F3 stable cell line • 3. A431 cells • 4. EGFR (H773insNPH) expressing Ba/F3 stable cell line • 5. HER2 (A775_G776insYVMA) expressing Ba/F3 stable cell line Assay Procedure: • 1. Seed cells at 5000 for A431 and 15,000 cells for Ba/F3 in 100 μL/well in complete media (for A431: DMEM with […] and for Ba/F3 cells: RPMI with 10% FBS) in 96-well tissue culture plate. Leave outer wells without cells for background measurements. Incubate at 37 degree Celsius in […] humidified incubator for 16-18 hours. • 2. Add 0.025 ml of 5× concentration compound dilution or DMSO control. Final compound concentration range is 10-0.0005 μM prepared in 3-fold serial dilutions. Incubate for 72 hr at 37 degree Celsius in […] humidified incubator. • 3. Add 0.0125 ml Alamar Blue™ reagent to each well with multi-channel pipette and tap gently on each side of the plate to mix. Incubate for 3 hours at 37 degree Celsius in 5% CO2 humidified incubator. • 4. […] Data analysis was performed using XLfit 5.5.0.5.

A431 cells = test: Cellular proliferation (Alamar Blue) assay, A431; assay type: cell-based; conditions: Homo sapiens, A-431; A431 cells, 72 hr, Alamar Blue; read-out: A431 IC50

Chain of HER2 (A775_G776insYVMA) expressing Ba/F3 stable cell line (P04626 with tags, fused parts or gaps DUP772-775): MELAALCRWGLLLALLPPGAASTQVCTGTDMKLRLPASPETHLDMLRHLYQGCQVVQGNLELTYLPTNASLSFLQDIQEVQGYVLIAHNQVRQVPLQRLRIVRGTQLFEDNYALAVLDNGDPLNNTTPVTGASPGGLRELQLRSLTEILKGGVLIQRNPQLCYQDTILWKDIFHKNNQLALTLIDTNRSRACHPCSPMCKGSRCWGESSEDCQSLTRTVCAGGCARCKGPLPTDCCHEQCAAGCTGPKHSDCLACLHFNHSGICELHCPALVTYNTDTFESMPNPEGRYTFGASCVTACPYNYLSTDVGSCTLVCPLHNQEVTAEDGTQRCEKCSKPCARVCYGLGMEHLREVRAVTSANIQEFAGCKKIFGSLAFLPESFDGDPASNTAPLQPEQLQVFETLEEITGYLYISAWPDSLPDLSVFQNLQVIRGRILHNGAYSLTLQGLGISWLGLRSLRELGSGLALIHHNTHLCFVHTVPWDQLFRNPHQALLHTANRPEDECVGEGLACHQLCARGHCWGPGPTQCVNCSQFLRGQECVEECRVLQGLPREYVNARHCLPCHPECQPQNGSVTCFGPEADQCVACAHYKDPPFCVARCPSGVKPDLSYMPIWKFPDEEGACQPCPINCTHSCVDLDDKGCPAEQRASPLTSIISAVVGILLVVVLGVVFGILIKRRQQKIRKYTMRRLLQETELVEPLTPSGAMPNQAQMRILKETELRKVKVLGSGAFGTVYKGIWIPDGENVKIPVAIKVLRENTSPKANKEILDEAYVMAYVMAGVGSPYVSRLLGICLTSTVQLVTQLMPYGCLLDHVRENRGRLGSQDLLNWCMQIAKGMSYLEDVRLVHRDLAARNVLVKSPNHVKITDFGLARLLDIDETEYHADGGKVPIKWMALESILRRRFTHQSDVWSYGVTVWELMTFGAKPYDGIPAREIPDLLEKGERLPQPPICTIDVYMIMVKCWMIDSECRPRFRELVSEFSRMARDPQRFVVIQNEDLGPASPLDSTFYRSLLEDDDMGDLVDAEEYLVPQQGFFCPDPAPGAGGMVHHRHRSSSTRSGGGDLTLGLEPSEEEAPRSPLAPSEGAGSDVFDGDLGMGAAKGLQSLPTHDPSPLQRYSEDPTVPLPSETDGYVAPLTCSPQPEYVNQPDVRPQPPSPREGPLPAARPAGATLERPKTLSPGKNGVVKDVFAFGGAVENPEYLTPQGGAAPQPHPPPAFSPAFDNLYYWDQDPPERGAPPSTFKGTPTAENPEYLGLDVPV

Compound	GI50 [1] [nM]	IC50 (A431 cells) [nM]
C=CC(=O)Nc1ccc(F)c(Nc2nc(Nc3cnn(C)c3)ncc2-c2cccc3ncccc23)c1 [Compound 262, N-(4-fluoro-3-((2-((1-methyl-1H-pyrazol-4-yl)amino)-5-(quinolin-5-yl)pyrimidin-4-yl)amino)phenyl)acrylamide]	4430	
C=CC(=O)Nc1ccc(F)c(Nc2nc(Nc3cnn(CC(C)(C)O)c3)ncc2Br)c1 [Compound 273, N-(3-((5-bromo-2-((1-(2-hydroxy-2-methylpropyl)-1H-pyrazol-4-yl)amino)pyrimidin-4-yl)amino)-4-fluorophenyl)acrylamide]	2630	3930
C=CC(=O)Nc1ccc(F)c(Nc2nc(Nc3cnn(C(C)(C)C#N)c3)ncc2C2=CCOC2)c1 [Compound 272, N-(3-((2-((1-(2-cyanopropan-2-yl)-1H-pyrazol-4-yl)amino)-5-(2,5-dihydrofuran-3-yl)pyrimidin-4-yl)amino)-4-fluorophenyl)acrylamide]	602	1010
C=CC(=O)Nc1ccc(Cl)c(Nc2nc(Nc3cnn(C)c3)ncc2-c2ccc(Br)cc2)c1 [Compound 292, N-(3-((5-(4-bromophenyl)-2-((1-methyl-1H-pyrazol-4-yl)amino)pyrimidin-4-yl)amino)-4-chlorophenyl)acrylamide]	8830	1020
C=CC(=O)Nc1cccc(Nc2ncc(Cl)c(Nc3cnn(C)c3)n2)c1 [Compound 275, N-(3-((5-chloro-4-((1-methyl-1H-pyrazol-4-yl)amino)pyrimidin-2-yl)amino)phenyl)acrylamide]	3050	1430
C=CC(=O)Nc1ccc(F)c(Nc2nc(Nc3cnn(C)c3)ncc2C2=CCOC2)c1 [Compound 261, N-(3-{[5-(2,5-dihydrofuran-3-yl)-2-[(1-methyl-1H-pyrazol-4-yl)amino]pyrimidin-4-yl]amino}-4-fluorophenyl) prop-2-enamide]	222	195
C=CC(=O)Nc1ccc(F)c(Nc2nc(Nc3cnn(C)c3)ncc2C2CCOCC2)c1 [Compound 255, N-(4-fluoro-3-((2-((1-methyl-1H-pyrazol-4-yl)amino)-5-(tetrahydro-2H-pyran-4-yl)pyrimidin-4-yl)amino)phenyl)acrylamide]	> 10000	
C=CC(=O)Nc1ccc(F)c(Nc2nc(Nc3cnn(CCN(C)C)c3)ncc2Cl)c1 [Compound 284, N-(3-((5-chloro-2-((1-(2-(dimethylamino)ethyl)-1H-pyrazol-4-yl)amino)pyrimidin-4-yl)amino)-4-fluorophenyl)acrylamide]	874	536
C=CC(=O)Nc1cc(Nc2nc(Nc3cnn(C)c3)ncc2Cl)cc2ccccc12 [Compound 297, N-(3-((5-chloro-2-((1-methyl-1H-pyrazol-4-yl)amino)pyrimidin-4-yl)amino)naphthalen-1-yl)acrylamide]	> 10000	7790
C=CC(=O)Nc1ccc(F)c(Nc2nc(Nc3ccc(N(C)CCN(C)C)cc3)ncc2Cl)c1 [Compound 288, N-(3-((5-chloro-2-((4-((2-(dimethylamino)ethyl)(methyl)amino)phenyl)amino)pyrimidin-4-yl)amino)-4-fluorophenyl)acrylamide]	3040	4910
C=CC(=O)Nc1ccc(F)c(Nc2nc(Nc3cnn(C)c3)ncc2N2CCCCC2)c1 [Compound 269, N-(4-fluoro-3-((2-((1-methyl-1H-pyrazol-4-yl)amino)-5-(piperidin-1-yl)pyrimidin-4-yl)amino)phenyl)acrylamide]	> 10000	5610
C=CC(=O)Nc1ccc(F)c(Nc2nc(Nc3cn(C)nc3Cl)ncc2-c2ccccc2F)c1 [Compound 264, N-(3-((2-((3-chloro-1-methyl-1H-pyrazol-4-yl)amino)-5-(2-fluorophenyl)pyrimidin-4-yl)amino)-4-fluorophenyl)acrylamide]	465	145
C=CC(=O)Nc1ccc(F)c(Nc2nc(Nc3cnn(C)c3)ncc2C2CCOC2)c1 (centres unmarked) [Compound 266, N-{4-fluoro-3-([2-[(1-methyl-1H-pyrazol-4-yl)amino]-5-(oxolan-3-yl)pyrimidin-4-yl}amino)phenyl] prop-2-enamide]	1380	768
C=CC(=O)Nc1ccc(F)c(Nc2nc(Nc3cnn(C)c3)ncc2-c2ccccc2N(C)C)c1 [Compound 267, N-(3-((5-(2-(dimethylamino)phenyl)-2-((1-methyl-1H-pyrazol-4-yl)amino)pyrimidin-4-yl)amino)-4-fluorophenyl)acrylamide]	> 10000	5800
C=CC(=O)Nc1ccc(F)c(Nc2nc(Nc3cnn(C)c3)ncc2-c2ccc3[nH]ncc3c2)c1 [Compound 277, N-(3-((5-(1H-indazol-5-yl)-2-((1-methyl-1H-pyrazol-4-yl)amino)pyrimidin-4-yl)amino)-4-fluorophenyl)acrylamide]	645	293
C=CC(=O)Nc1ccc(F)c(Nc2nc(Nc3cnn(C)c3)ncc2-c2ccccc2Cl)c1 [Compound 150, N-(3-((5-(2-chlorophenyl)-2-((1-methyl-1H-pyrazol-4-yl)amino)pyrimidin-4-yl)amino)-4-fluorophenyl)acrylamide 2,2,2-trifluoroacetate]	1810	
C=CC(=O)Nc1ccc(F)c(Nc2nc(Nc3cnn(C)c3)ncc2-c2cccc3ccncc23)c1 [Compound 268, N-(4-fluoro-3-((5-(isoquinolin-8-yl)-2-((1-methyl-1H-pyrazol-4-yl)amino)pyrimidin-4-yl)amino)phenyl)acrylamide]	> 10000	3440
C=CC(=O)Nc1ccc(F)c(Nc2nc(Nc3cnn(C)c3)ncc2-c2ccc(OCc3cccc(F)c3)cc2)c1 [Compound 276, N-(4-fluoro-3-((5-(4-((3-fluorobenzyl)oxy)phenyl)-2-((1-methyl-1H-pyrazol-4-yl)amino)pyrimidin-4-yl)amino)phenyl)acrylamide]	861	278
C=CC(=O)Nc1cc(Nc2nc(Nc3cnn(C)c3)ncc2Cl)cc(C(F)(F)F)c1 [Compound 291, N-(3-((5-chloro-2-((1-methyl-1H-pyrazol-4-yl)amino)pyrimidin-4-yl)amino)-5-(trifluoromethyl)phenyl)acrylamide]	1840	> 10000
C=CC(=O)Nc1ccc(F)c(Nc2nc(Nc3cnn(C(C)(C)C#N)c3)ncc2Br)c1 [Compound 271, N-(3-((5-bromo-2-((1-(2-cyanopropan-2-yl)-1H-pyrazol-4-yl)amino)pyrimidin-4-yl)amino)-4-fluorophenyl)acrylamide]	2160	2960
C=CC(=O)Nc1cc(Br)cc(Nc2nc(Nc3cnn(C)c3)ncc2-c2ccc(C(F)(F)F)cc2)c1 [Compound 290, N-[3-bromo-5-({2-[(1-methyl-1H-pyrazol-4-yl)amino]-5-[4-(trifluoromethyl)phenyl]pyrimidin-4-yl}amino)phenyl]prop-2-enamide]	2920	> 9780
C=CC(=O)Nc1ccc(F)c(Nc2nc(Nc3cnn(C)c3)ncc2-c2ccc3c(cnn3C)c2)c1 [Compound 270, N-(4-fluoro-3-((5-(1-methyl-1H-indazol-5-yl)-2-((1-methyl-1H-pyrazol-4-yl)amino)pyrimidin-4-yl)amino)phenyl)acrylamide]	985	190
